Several values for one entry are separate records, joined by “and”; a condition that tells them apart may be missing. Equal entries are not always repeated. No end group written: not given here.
Assays:
[1] = test system: C. albicans strain SC5314; assay: crystal violet based biofilm assay (24 hours, OD600); assay type: cell-based, Candida albicans; settings: for Mean Normalized to vehicle control: biofilm OD600 values normalized to vehicle control, 24 hours; for efficacy in inhibiting formation of biofilm relative to PYY13-36: in vitro, Candida albicans; for inhibition of biofilm formation: crystal violet staining, 10-20 uM of respective peptides
Description: FIG. 13. […] Biofilm formation was measured in an assay that quantitates biofilms by staining with a crystal violet dye. The amount of dye absorbed by the biofilm positively correlates with amount of biofilm present. Amount of dye is measured via an optical density reading at a wavelength of 600 nm (OD600). Biofilm formation is measured over 24 hours in the presence or absence of peptides at 10, 30, or 40 uM concentrations.
(§1) Candida albicans (sc3514 cited in: Romanowski et al. PLOS One 7: e30119, 2012.: incorporated by reference in its entirety) and Candida tropicalis (ATCC #13803) were maintained in frozen glycerol stocks at −80° C. and streaked out on yeast-peptone-dextrose (YPD) agar plates for 48 hours at 30° C. prior to use. Single colonies were selected and cultured in YPD media at 30° C. Biofilm assays were performed using crystal violet straining (Taff et al. Med Mycol 50:214-218, 2012.: incorporated by reference in its entirety) in the presence of 10-20 uM of respective peptides. To induce hyphal growth, strains were placed in YPD+5% FBS or RPMI media at 37° C. for 4 hours. To image hyphal membrane disruption, the DNA binding fluorescent dye, propidium iodide (PI), was added to wells strains in the presence of peptides and imaged under bright field and far red fluorescent conditions. […] To investigate Candida albican virulence gene expression, 10 μL of a 1.0 OD600 culture were placed in 1 mL RPMI at 37° C. with shaking for 8 hours. Cultures were centrifuged at 3000×g for 5 minutes and RNA isolation was performed as described below.
Antifungal activity of peptides described in this application was tested by performing a crystal violet based biofilm assay. In this assay, Candida albicans is induced to form a biofilm in a 96-well plate for 24 hours in the presence or absence of peptide. Biofilm formation is quantitated through crystal violet staining and solubilization followed by optical density reading. […] Data are OD600 values normalized to appropriate within experiment vehicle control. Statistical analysis was performed via 2-Way ANOVA with multiple comparisons post-test. Significance is denoted by: *=p<0.05; **=p<0.01; ***-p<0.001; ****=p<0.0001. ns=not significant.

PYY = assay: ex vivo ileal tissue culture and PYY ELISA; set-up: species or system mice
Description: Tissues were harvested from conventional or germ-free WT mice. Three cm sections of distal ileum were dissected from the mesentery and ligated on one end. Next, Krebs buffer (pH 7.4) was inoculated with either LPS (100 ng/mL) or Carbamoylcholine (10 um) and sealed in the ileal section and incubated in Krebs at 37° C. for 30 minutes. Next, the luminal solutions were retrieved and centrifuged at 3000×g for 3 minutes to remove particulate.

Candida albicans hyphae = assay: propidium iodide hyphal permeability assay; assay type: cell-based; settings: N terminus FITC label, during PI assay
Description: as §1
Magainin-2 compromises fungal growth by inserting into and permeabilizing the fungal cell wall. […] Permeabilization of the fungal cell wall was determined by uptake of propidium iodide (PI), a dye that is excluded by intact viable cells. […]

Candida albicans = Candida albicans culture growth; assay type: cell-based; settings: hyphal inducing conditions (broth culture containing serum)

Substance | Mean Normalized to vehicle control ([1]; 30 μM peptide) | Mean Normalized to vehicle control ([1]; 10 μM peptide) | Mean Normalized to vehicle control ([1]; 40 μM peptide) | also measured
LPDELNRYYASLRKYLNLVTRQRY [AVpeptide 25, (S13L, E15D, H26K)] | 0.01 and 0.02 |  |  | inhibition of biofilm formation at concentrations lower than PYY13-36 [1]: greatly inhibited biofilm formation by C. albicans at concentrations lower than PYY13-36; efficacy in inhibiting formation of biofilm relative to PYY13-36 [1]: increased inhibition of biofilm formation
SPEELNRYYASLRHYLRLVTRQRY [AVpeptide 22, (N29R)] | 0.37 | 0.84 |  | 
SPEELNRYYASLRHYLNLVTRQR [AVpeptide 24, (PYY13-35)] | 0.71 | 0.83 |  | efficacy in inhibiting formation of biofilm relative to PYY13-36 [1]: reduced efficacy
PYY14-36 Modified: PYY14-36 with Arginine replaced by Alanine (PEELNAYYASLAHYLNLVTAQAY; ends and bridges not checked) [reference compound] |  |  |  | inhibition of biofilm formation [1]: reduced the inhibitory effect
SPEELNRYYTALRHYLNLVTRQRY [AVpeptide 30, (A22T, S23A)] | 0.02 | 0.16 and 0.10 |  | 
LPEELNRYYASLRHYLNLVTRQRY [AVpeptide 10, (S13L)] |  |  | 0.17 | 
LPS |  |  |  | luminal PYY release (PYY; Germ-free (GF) tissues): released only in response to Carb; luminal PYY release (PYY; Specific-Pathogen Free (SPF) tissues): released PYY
PEELNRYYASLRHYLNAVTRQLA [AVpeptide 4, (14-36, L30A; R35L; Y36A)] | 0.89 and 0.94 | 1.04 and 0.98 | 0.88 | 
SPEELNRYYASLRHYLNLVTRQLR [AVpeptide 6] | 0.52 | 0.97 | 0.28 | efficacy in inhibiting formation of biofilm relative to PYY13-36 [1]: reduced efficacy
SPEQLNRYYASLRHYLNLVTRERY [AVpeptide 13, (E16Q, Q34A)] | 0.14 | 0.95 | 0.07 | 
ASPEELNRYYASLRHYLNLVTRQRY [AVpeptide 18, (12-36)] | 0.16 | 1.11 | 0.05 | 
SPEELNRYYASLRHYLNLVTRQLY [AVpeptide 21, (R35L)] | 0.02 | 0.92 |  | 
LPEELNRYYASLRHYLNLVTRQLY [AVpeptide 11, (S13L; R35L)] |  |  | 0.99 | 
FITC-labeled PYY: fluorescently (N terminus FITC) labeled PYY |  |  |  | localization of labeled peptide (Candida albicans hyphae): localized exclusively to the same terminal hyphal cells that take up PI
SPEELNRYLASLRHYLNLVTRQRY [AVpeptide 28, (Y21L)] | 0.09 and 0.17 |  |  | 
PYY1-13: PYY peptide composed of amino acids 1-13 (YPIKPEAPGEDAS) |  |  |  | C. albicans culture growth (Candida albicans): displayed no antifungal properties
PEELNRYYASLRHYLNLVTRQRA [AVpeptide 3, (14-36, Y36A)] | 0.90 and 0.93 | 1.00 and 0.94 | 0.91 | 
SPEELNRLLASLRHLLNLVTRQRY [AVpeptide 32, (Y20L, Y21L, Y27L)] |  |  |  | efficacy in inhibiting formation of biofilm relative to PYY13-36 [1]: increased inhibition of biofilm formation
SPEELNRYYASLRHYLRLVTRQLY [AVpeptide 9, (N29R; R35L)] |  |  | 0.05 | 

Substance | Mean Normalized to vehicle control ([1]; 30 μM peptide) | Mean Normalized to vehicle control ([1]; 10 μM peptide) | Mean Normalized to vehicle control ([1]; 40 μM peptide) | also measured
YPEEYNRYYASYRHYLNHVTRQRY [AVpeptide 16, (S13Y L17Y L24Y L30H)] | 1.02 | 1.06 | 0.95 | 
PYY1-12: N-terminal PYY fragment used as inactive comparison peptide (YPIKPEAPREDA; Peptide YY; UniProt P10082 29-40, looked up, fragment) [reference compound] |  |  |  | inhibition of biofilm formation [1]: not a scrambled peptide control or PYY1-12, were capable of blocking biofilm formation
SPEELNRYYASLRHYINLVTRQRY [AVpeptide 29, (L28I)] | 0.04 | 0.58 |  | 
PEELNRYYASLRHYLNAVTRQRY [AVpeptide 2, (14-36, L30A)] | 0.91 and 1.08 | 1.05 and 1.02 | 1.01 | 
PEELNRYYASLRHYLNLVTRQLY [AVpeptide 1, (14-36; R35L)] | 0.74 and 0.40 | 0.96 and 0.95 | 0.14 | 
LPEELNRYYASLRHYLRLVTRQLY [AVpeptide 23, (S13L, N29R, R35L)] |  | 0.03 |  | inhibition of biofilm formation at concentrations lower than PYY13-36 [1]: greatly inhibited biofilm formation by C. albicans at concentrations lower than PYY13-36; efficacy in inhibiting formation of biofilm relative to PYY13-36 [1]: increased inhibition of biofilm formation
YPEEYNRYYASYRHYLNLVTRQRY [AVpeptide 17, (S13Y L17Y L24Y)] | 0.94 | 0.91 |  | 
SPDELNRYYASLRKYLNLVTRQRY [AVpeptide 14, (E15D, H26K)] | 0.07 | 0.82 | 0.07 | 
SPEELNRYYLALRHYLNLVTRQRY [AVpeptide 31, (A22L, S23A)] | 1.00 | 0.05 |  | 
SPEELNRYYASLRHYLNLVTRQRR [AVpeptide 5, (Y36R)] | 0.28 and 0.53 | 0.64 and 0.76 |  | 
SPEELNRYYASSRHYLNLVTRQRY [AVpeptide 19, (L24S)] | 1.01 | 1.06 | 0.97 | efficacy in inhibiting formation of biofilm relative to PYY13-36 [1]: reduced efficacy
SPEELNKYYASLRHYLNLVTRQRY [AVpeptide 27, (R19K)] | 0.08 | 0.66 |  | 
PYY 1-36 Modified: PYY with charge modified by replacing Arginine with Alanine (YPIKPEAPGEDASPEELNAYYASLAHYLNLVTAQAY; ends and bridges not checked) [reference compound] |  |  |  | inhibition of biofilm formation [1]: reduced the inhibitory effect
SPEELNRYYASLRHYLNLVTRQVY [AVpeptide 8, (R35V)] | 0.71 | 0.97 | 0.31 | efficacy in inhibiting formation of biofilm relative to PYY13-36 [1]: reduced efficacy
SPEELNRYYASLRHYLNLVTRQYY [AVpeptide 7, (R35Y)] | 0.08 | 0.97 | 0.33 | 
SPEELNRYYASLRHYYNLVTRQRY [AVpeptide 12, (L28Y)] | 0.46 | 1.01 | 0.15 | 
SPEELNRYYLSLRHYLNLVTRQRY [AVpeptide 20, (A22L)] | 1.07 and 1.25 and 1.03 | 0.47 and 0.52 and 0.62 | 1.04 | efficacy in inhibiting formation of biofilm relative to PYY13-36 [1]: increased inhibition of biofilm formation
SPEELNRYYASLRHYLNLVTRQ [AVpeptide 15, (13-34)] | 0.78 | 0.96 | 0.69 | 
